Experimental data from PMC10386914 (Clinical Pharmacokinetics, 2023).

Assay: Grade ≥3 toxicity
Format: in vivo, human
Details: standard dose; study period

## Cc1ccc(Nc2nccc(N(C)c3ccc4c(C)n(C)nc4c3)n2)cc1S(N)(=O)=O [Pazopanib]
  patients with grade ≥3 adverse events, wildtype patients: 29%
